Source: publication PMC8231556, “Inhibiting Endothelial Cell Function in Normal and Tumor Angiogenesis Using BMP Type I Receptor Macrocyclic Kinase Inhibitors” (Cancers, 2021)

Key:
Format in all cases: cell-based, human
EA.hy926 cells [1] = assay: Scratch wound migration assay; conditions: 0.5 µM, 24 h; for effect on FBS-induced EC migration: 1% FBS; for effect on BMP9-induced EC migration: BMP9 1 ng/mL; for effect on VEGF-induced EC migration: VEGF 15 ng/mL
Method: Approximately 5 × 10^4 EA.hy926 cells/well were seeded in a 96-well microplate Essen ImageLock™ (4379, Essen Bioscience, Ann Arbor, MI, USA) and cultured overnight. Then homogeneous 700–800 micron-wide scratch wounds were made using a WoundMaker™ device (4563, Essen Bioscience, Ann Arbor, MI, USA) containing 96 pins. The compounds and/or ligands were added to each well in 100 µL of fresh serum-free medium. Each group contained 6 replicates. Real-time pictures were acquired every 4 h by the IncuCyte ZOOM (Essen Bioscience) to track the wound closure. The wound density was analyzed using the software package provided by the manufacturer and normalized to the wound width at the start of the experiment. All the experiments were repeated at least three times, and representative results are shown.

[2] = test system: BMP9-induced ID1, ID3, and SMAD6 mRNA expression; assay: RT-qPCR of BMP9-induced ID1, ID3 and SMAD6 mRNA in EA.hy926 cells; conditions: 0.5 µM compound, BMP9 1 ng/mL
Method: (§1) EA.hy926 cells or HUVECs were seeded in 6-well plates and cultured until they reached 80% confluence. The medium was replaced with a serum-free medium for a 4 h starvation. For EA.hy926 cells, the compounds were added at a final concentration of 0.5 μM for 30 min, followed by BMP9 (1 ng/mL), TGF-β2 (1 ng/mL), or vehicle control addition and cultured for another 3 h before the cells were harvested. To investigate VEGF-induced cellular response, HUVECs were exposed to VEGF (40 ng/mL) for 1 h after 30 min pre-treatment with the compounds.
(§2) After samples were collected, total RNA was isolated and purified using the NucleoSpin RNA II kit (740955, BIOKE, Leiden, the Netherlands), following the manufacturer’s instructions. Then, the mRNA was used as a template to synthesize cDNA by performing reverse transcription with the RevertAid First Strand cDNA Synthesis Kit (K1621, ThermoFisher Scientific). Gene expression levels were determined by RT-qPCR analysis using the GoTaq qPCR Master Mix (A6001, Promega, Madison, WI, USA) and normalized to GAPDH expression. All the experiments were repeated three times, and results from three biologically independent experiments are shown.

EA.hy926 cells [3] = assay: Proliferation assay (IncuCyte confluence); conditions: 0.5 µM, 3 days
Method: Around 4 × 10^3 EA.hy926 cells per well were seeded in a 96-well microplate Essen ImageLock™ in 200 µL of culture medium containing the indicated concentrations of compounds and ligands, and the plate was directly inserted into the IncuCyte ZOOM instrument for scanning. Images of each well were acquired every 4 h for 3 days. The real-time cell confluence in each well was analyzed after normalizing to the initial cell density. All the experiments were repeated at least three times, and representative results are shown.

[4] = test system: BMP9-induced BRE-Luc activity; assay: BRE-luciferase transcriptional reporter assay, BMP9-stimulated EA.hy926-BRE-Luc cells; conditions: for BMP9-induced BRE-Luc activity (fold): BMP9 1 ng/mL alone 5.0 fold
Source text: The BMP responsive element (BRE)-driven transcriptional luciferase reporter, which contains SMAD1/5-SMAD4 responsive elements of the ID1 gene promoter, was used to assess the activation of the BMP/SMAD signaling pathway. A lentiviral vector carrying this reporter construct (pRRL-BRE-Luc) was generated by digesting the MLP-BRE-Luc plasmid with KpnI and SalI and then inserted into the lentivirus vector pRRL-CMV digested with XhoI and KpnI. Lentiviral particles were made using HEK 293 T cells, and EA.hy926 cells were transduced to generate BRE-Luc stably expressing cells, named as EA.hy926-BRE-Luc.
EA.hy926-BRE-Luc cells were seeded at approximately 5 × 10^5 cells/well in a 24-well plate. Cells were serum-starved overnight by incubating with a serum-free medium. After starvation, the cells were pre-incubated with the compounds for 30 min and subsequently stimulated overnight with ligands (or vehicle control). Thereafter, the cells were lysed, and luciferase activity was measured with the firefly luciferase assay System kit (E1501, Promega Corporation, Madison, WI, USA) using a PerkinElmer luminometer. The firefly luciferase activity was normalized to protein content, which was determined using the DC protein assay kit (5000111, Bio-Rad, Hercules, CA, USA).

[5] = test system: VEGF-induced DLL4 and NR4 A1 mRNA expression; assay: RT-qPCR of VEGF-induced DLL4 and NR4A1 mRNA in HUVECs; conditions: 0.5 µM compound, VEGF 40 ng/mL
Method: as §1, §2

[6] = test system: BMP6-induced SMAD1/5 phosphorylation; assay: Western blot of BMP6-induced SMAD1/5 phosphorylation in EA.hy926 cells; conditions: BMP6 50 ng/mL
Method: EA.hy926 cells or HUVECs were seeded in 6-well plates and starved in a serum-free medium for 4 h after reaching 80% confluence. The compounds were added 30 min prior to stimulation with the corresponding ligands. EA.hy926 cells were incubated with BMP9 (1 ng/mL), BMP6 (50 ng/mL), TGF-β2 (1 ng/mL), or vehicle control for 1 h. For HUVECs, after 4 h starvation, the cells were pre-treated with or without the indicated compounds for 30 min and subsequently stimulated with VEGF (40 ng/mL) for 10 min. The cells were harvested and lysed in radioimmunoprecipitation assay (RIPA) lysis buffer containing 1× complete protease inhibitor cocktail (11836153001, Roche, Basel, Switzerland). The protein concentration was determined using the DC protein assay kit (5000111, Bio-Rad). After adding loading buffer, the samples were boiled and proteins separated by sodium dodecyl sulfate polyacrylamide gel electrophoresis (SDS-PAGE). Proteins in the gel were transferred to polyvinylidene difluoride (PVDF) membranes (IPVH00010, Merck Millipore, Burlington, MA, USA) and immunoblotted with 1000 times diluted primary antibodies: phospho-SMAD1/5 (9516 S, Cell Signaling Technology, Leiden, The Netherlands), phospho-SMAD2 (pSMAD2, home-made), SMAD1 (6944 S, Cell Signaling Technology), SMAD2 (3103 S, Cell Signaling Technology), phospho-extracellular signal-regulated kinase/mitogen-activated protein kinase (pERK/MAPK, 4370, Cell Signaling Technology), mitogen-activated protein kinase/ERK1/2 (ERK1/2/MAPK, 9102 S, Cell Signaling Techonol), VEGFR (2479, Cell Signaling), pVEGFR (2478, Cell Signaling Technology), α/β-Tubulin (2148, Cell Signaling Technology), glyceraldehyde 3-phosphate dehydrogenase (GAPDH, MAB374, Merck Millipore). Clarity™ enhanced chemiluminescence (ECL) reagent (1705060, Bio-Rad) was used to visualize secondary antibodies conjugated to horseradish peroxidase (HRP). GAPDH or Tubulin was used as protein loading controls. All the experiments were repeated at least three times, and representative experiments are shown. The protein bands were quantified using ImageJ (National Institutes of Health, Bethesda, MD, USA).

| SMILES | effect on FBS-induced EC migration (EA.hy926 cells [1]) | effect on BMP9-induced EC migration (EA.hy926 cells [1]) | effect on VEGF-induced EC migration (EA.hy926 cells [1]) | effect on BMP9-induced ID1, ID3 and SMAD6 mRNA expression [2] | effect on EC proliferation (real-time confluence) (EA.hy926 cells [3]) | BMP9-induced BRE-Luc activity (fold) ([4]; 0.5 μM compound) | BMP9-induced BRE-Luc activity (fold) ([4]; 1 μM compound) | effect on VEGF-induced DLL4 mRNA expression [5] | effect on VEGF-induced NR4 A1 mRNA expression [5] | effect on BMP6-induced SMAD1/5 phosphorylation ([6]; 0.1 µM compound) | effect on BMP6-induced SMAD1/5 phosphorylation ([6]; 1 µM compound) | effect on BMP9-induced BRE activity ([4]; 0.5 μM compound) | effect on BMP9-induced BRE activity ([4]; 1 μM compound) | BMP9-induced BRE-Luc activity (fold) ([4]; 0.1 μM compound) |
| --- | --- | --- | --- | --- | --- | --- | --- | --- | --- | --- | --- | --- | --- | --- |
| CN1CCC(=O)NCCNc2ccn3ncc(c3n2)-c2cccc(c2)C1 [OD29] | effective in suppressing | significantly inhibited | antagonized | inhibited | LDN-193189 strongly inhibited ECs proliferation, unlike OD16 and OD29 | 3.1 fold | 0.9 fold | inhibited | inhibited | failed to antagonize | very weak inhibitory effect | – | – | – |
| c1ccc2c(-c3cnn4cc(-c5ccc(N6CCNCC6)cc5)cnc34)ccnc2c1 [LDN-193189, reference compound] | did not affect | significantly inhibited | no inhibitory effect | inhibited | strongly inhibited | – | – | – | – | efficiently inhibited | – | significantly inhibited | nearly decreased to basal levels | – |
| CNC(=O)c1ccccc1Sc1ccc2c(/C=C/c3ccccn3)n[nH]c2c1 [Axitinib, reference compound] | – | – | – | – | – | – | – | inhibited | inhibited | – | – | – | – | – |
| CN1CCc2cccc(c2)Nc2nccc(n2)N2CCCc3cc(ccc32)C1 [OD16] | did not affect | significantly inhibited | antagonized | inhibited | LDN-193189 strongly inhibited ECs proliferation, unlike OD16 and OD29 | – | – | did inhibit | – | efficiently inhibited | – | – | nearly completely inhibited | 2.1 fold |
